Tests used:
[1] = molecular target: T1, hGPR40 (Homo sapiens, UniProt O14842); assay: GPR40 IP-One HTRF assay in HEK293/GPR40 inducible cell lines; format: cell-based; parameters: expressed in transfected cells; details: HEK293 cells with tetracycline-inducible human GPR40; read-out: hGPR40 IP1 EC50
Description: GPR40 IP-One HTRF Assays in HEK293/GPR40 Inducible Cell Lines
Human, mouse and rat GPR40-mediated intracellular IP-One HTRF assays were established using human embryonic kidney HEK293 cells stably transfected with a tetracycline-inducible human, mouse or rat GPR40 receptor. Cells were routinely cultured in growth medium containing DMEM (Gibco Cat. #12430-047), 10% qualified FBS (Sigma, Cat. #F2442), 200 μg/ml hygromycin (Invitrogen, Cat. #16087-010) and 1.5 μg/ml blasticidin (Invitrogen, Cat. #R210-01). About 12-15 million cells were passed into a T175 tissue culture flask (BD FALCON® 353112) with growth medium and incubated for 16-18 hours (overnight) at 370 C with 5% CO2. The next day, assay medium was exchanged with growth medium containing 1000 ng/mL of tetracycline (Fluka Analytical, Cat. #87128) to induce GPR40 expression for 18-24 hours at […] incubator with 5% CO2. After induction, the cells were washed with PBS (Gibco, Cat. #14190-036) and detached with Cell Stripper (CELLGRO®, Cat. #25-056-CL). 10-20 mL growth medium were added to the flask and cells were collected in 50 mL tubes (FALCON®, Cat. #352098) and spun at 1000 RPM for 5 minutes. Culture medium was aspirated and the cells were resuspended in 10 mL of 1× IP-One Stimulation Buffer from the Cisbio IP-One kit (Cisbio, Cat. #62IPAPEJ). The cells were diluted to 1.4×10^6 cells/mL in Stimulation Buffer.
Test compounds were 3-fold, 11-point serially diluted in DMSO in a REMP assay plate (Matrix Cat. #4307) by BIOCEL® (Agilent). The compounds were transferred into an Echo plate (LABCYTE, Cat. #LP-0200) and […] of diluted compounds were transferred to an assay plate (proxi-plate from Perkin Elmer, Cat. #6008289) by Echo acoustic nano dispenser (LABCYTE, model ECHO550). 14 μL of the diluted cells were then added to the assay plate by Thermo (SN 836 330) CombiDrop and incubated at room temperature for 45 minutes. Then 3 μL of IP1 coupled to dye D2 from the Cisbio IP-One kit were added to the assay plate followed by 3 μL of Lumi4TM-Tb cryptate K from the kit. The plate was further incubated at room for 1 hour before reading on the Envision (Perkin Elmer Model2101) with an HTRF protocol. Activation data for the test compound over a range of concentrations was plotted as percentage activation of the test compound (100%=maximum response). After correcting for background [(sample read-mean of low control)/(mean of high control−mean of low control)](low control is DMSO without any compound), EC50 values were determined. The EC50 is defined as the concentration of test compound which produces 50% of the maximal response and was quantified using the 4 parameter logistic equation to fit the data.

[2] = molecular target: T1, hGPR40; assay: FDSS-based intracellular calcium assay; format: cell-based; parameters: 3xFLAG; expressed in transfected cells; details: intracellular Ca2+ response, cells expressing GPR40
Description: FDSS-Based Intracellular Calcium Assay
Compounds are dissolved in DMSO and diluted to desired concentrations with assay buffer and added to the cells as 3× solution (20 μL per well). Run fluorescence/luminescence reader FDSS (Hamamatsu) to read intracellular Ca^2+ response.

T1 sequence (O14842 whole entry): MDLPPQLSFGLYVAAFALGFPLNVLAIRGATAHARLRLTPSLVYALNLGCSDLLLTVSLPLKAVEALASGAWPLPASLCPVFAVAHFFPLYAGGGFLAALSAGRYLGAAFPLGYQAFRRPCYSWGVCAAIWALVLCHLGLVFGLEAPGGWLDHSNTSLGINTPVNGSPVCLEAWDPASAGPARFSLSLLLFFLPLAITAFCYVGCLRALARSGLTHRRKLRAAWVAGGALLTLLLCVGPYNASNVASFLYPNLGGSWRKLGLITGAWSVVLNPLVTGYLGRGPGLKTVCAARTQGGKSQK

Compound	EC50 [1] [nM]	EC50 [2] [nM]
COc1ccc(F)c(N2CCC(Oc3ccc(N4N=C(C(F)(F)F)[C@@H](C)[C@@H]4CC(=O)O)cc3)C(F)C2)c1 (single isomer, unassigned) [Example 57 (Isomer 4)]	11	66
Cc1ccc(F)c(N2CCC(Oc3ccc(N4N=C(C(F)(F)F)[C@@H](C)[C@@H]4CC(=O)O)cc3)CC2)c1 [Example 36, 2-((4S,5S)-1-(4-((1-(2-Fluoro-5-methylphenyl)piperidin-4-yl)oxy)phenyl)-4-methyl-3-(trifluoromethyl)-4,5-dihydro-1H-pyrazol-5-yl)acetic acid]	86	440
CCOc1cc(F)c(F)c(N2CCC(Oc3ccc(N4N=C(C(F)(F)F)[C@@H](C)[C@@H]4CC(=O)O)cc3)CC2)c1 [Example 17, 2-((4S,5S)-1-(4-((1-(5-Ethoxy-2,3-difluorophenyl)piperidin-4-yl)oxy)phenyl)-4-methyl-3-(trifluoromethyl)-4,5-dihydro-1H-pyrazol-5-yl)acetic acid]	294	286
CCc1ccc(F)c(N2CCC(Oc3ccc(N4N=C(C(F)(F)F)[C@@H](C)[C@@H]4CC(=O)O)cc3)CC2)c1 [Example 65, 2-((4S,5S)-1-(4-((1-(5-Ethyl-2-fluorophenyl)piperidin-4-yl)oxy)phenyl)-4-methyl-3-(trifluoromethyl)-4,5-dihydro-1H-pyrazol-5-yl)acetic acid]	297	583
CCOc1ccc(F)c(N2CCC(Oc3ccc(N4N=C(C(F)(F)F)[C@@H](C)[C@@H]4CC(=O)O)cc3)C(CC(C)C)C2)c1 (single isomer, unassigned) [Example 27 (Isomer 1)]	90	412
CCc1cccc(N2CCC(Oc3ccc(N4N=C(C(F)(F)F)[C@@H](C)[C@@H]4CC(=O)O)cc3)CC2)c1 [Example 71, 2-((4S,5S)-1-(4-((1-(3-Ethylphenyl)piperidin-4-yl)oxy)phenyl)-4-methyl-3-(trifluoromethyl)-4,5-dihydro-1H-pyrazol-5-yl)acetic acid]	224	1180
C[C@@H]1C(C(F)(F)F)=NN(c2ccc(OC3CCN(c4cccc(F)c4)CC3)cc2)[C@H]1CC(=O)O [Example 48, 2-((4S,5S)-1-(4-((1-(3-Fluorophenyl)piperidin-4-yl)oxy)phenyl)-4-methyl-3-(trifluoromethyl)-4,5-dihydro-1H-pyrazol-5-yl)acetic acid]	–	2270
Cc1ccc(C)c(N2CCC(Oc3ccc(N4N=C(C(F)(F)F)[C@@H](C)[C@@H]4CC(=O)O)cc3)CC2)c1 [Example 43, 2-((4S,5S)-1-(4-((1-(2,5-Dimethylphenyl)piperidin-4-yl)oxy)phenyl)-4-methyl-3-(trifluoromethyl)-4,5-dihydro-1H-pyrazol-5-yl)acetic acid]	–	1070
CCOc1ccc(F)c(N2CCC(Oc3ccc(N4N=C(c5ccc(F)cc5)[C@@H](C)[C@@H]4CC(=O)O)cc3)CC2)c1 [Example 95, 2-((4S,5S)-1-(4-((1-(5-Ethoxy-2-fluorophenyl)piperidin-4-yl)oxy)phenyl)-3-(4-fluorophenyl)-4-methyl-4,5-dihydro-1H-pyrazol-5-yl)acetic acid]	–	108
COc1ccc(F)c(N2CCC(Oc3ccc(N4N=C(c5ncccn5)C(C)C4CC(=O)O)cc3)CC2)c1 (single isomer, unassigned) [Example 22, Isomer 2, 2-(1-(4-((1-(2-Fluoro-5-methoxyphenyl)piperidin-4-yl)oxy)phenyl)-4-methyl-3-(pyrimidin-2-yl)-4,5-dihydro-1H-pyrazol-5-yl)acetic acid]	–	5570
C[C@@H]1C(C(F)(F)F)=NN(c2ccc(OC3CCN(c4ccc(F)cc4)CC3)cc2)[C@H]1CC(=O)O [Example 49, 2-((4S,5S)-1-(4-((1-(4-Fluorophenyl)piperidin-4-yl)oxy)phenyl)-4-methyl-3-(trifluoromethyl)-4,5-dihydro-1H-pyrazol-5-yl)acetic acid]	–	2650
C[C@@H]1C(C(F)(F)F)=NN(c2ccc(OC3CCN(c4cccc(Cl)c4)CC3)cc2)[C@H]1CC(=O)O [Example 50, 2-((4S,5S)-1-(4-((1-(3-Chlorophenyl)piperidin-4-yl)oxy)phenyl)-4-methyl-3-(trifluoromethyl)-4,5-dihydro-1H-pyrazol-5-yl)acetic acid]	–	2840
CC(C)c1ccc(F)c(N2CCC(Oc3ccc(N4N=C(C(F)(F)F)[C@@H](C)[C@@H]4CC(=O)O)cc3)CC2)c1 [Example 66, 2-((4S,5S)-1-(4-((1-(2-Fluoro-5-isopropylphenyl)piperidin-4-yl)oxy)phenyl)-4-methyl-3-(trifluoromethyl)-4,5-dihydro-1H-pyrazol-5-yl)acetic acid]	–	600
Cc1ccc(F)c(N2CCC(Oc3ccc(N4N=C(C(F)(F)F)[C@@H](C)[C@@H]4CC(=O)O)cc3)CC2)n1 [Example 61, 2-((4S,5S)-1-(4-((1-(3-Fluoro-6-methylpyridin-2-yl)piperidin-4-yl)oxy)phenyl)-4-methyl-3-(trifluoromethyl)-4,5-dihydro-1H-pyrazol-5-yl)acetic acid]	–	366
CCOc1cc(N2CC[C@H](Oc3ccc(N4N=C(C(F)(F)F)[C@@H](C)[C@@H]4CC(=O)O)cc3)[C@@H](C)C2)c(F)cn1 [Example 84, 2-((4S,5S)-1-(4-(((3S,4S)-1-(2-Ethoxy-5-fluoropyridin-4-yl)-3-methylpiperidin-4-yl)oxy)phenyl)-4-methyl-3-(trifluoromethyl)-4,5-dihydro-1H-pyrazol-5-yl)acetic acid]	–	2580
CC(C)Oc1ccc(F)c(N2CCC(Oc3ccc(N4N=C(C(F)(F)F)[C@@H](C)[C@@H]4CC(=O)O)cc3)CC2)c1 [Example 9, 2-((4S,5S)-1-(4-((1-(2-Fluoro-5-isopropoxyphenyl)piperidin-4-yl)oxy)phenyl)-4-methyl-3-(trifluoromethyl)-4,5-dihydro-1H-pyrazol-5-yl)acetic acid]	–	374
CCC1C(C(F)(F)F)=NN(c2ccc(OC3CCN(c4cc(OC)ncc4Cl)CC3C)cc2)C1CC(=O)O (single isomer, unassigned) [Example 86, Isomer 1, 2-(1-(4-((1-(5-Chloro-2-methoxypyridin-4-yl)-3-methylpiperidin-4-yl)oxy)phenyl)-4-ethyl-3-(trifluoromethyl)-4,5-dihydro-1H-pyrazol-5-yl)acetic acid]	–	73
CCOc1ccc(F)c(N2CCC(Oc3ccc(N4N=C(C(F)(F)F)[C@@H](C)[C@@H]4CC(=O)O)cc3)C(C(C)C)C2)c1 (single isomer, unassigned) [Example 26 (Isomer 2)]	–	82
COc1ccc(F)c(N2CCC(Oc3ccc(N4N=C(C(F)(F)F)[C@@H](CC5CC5)[C@@H]4CC(=O)O)cc3)CC2)c1 (single isomer, unassigned) [Example 90, Isomer 1]	–	1630
Cc1ccc(Cl)c(N2CCC(Oc3ccc(N4N=C(C(F)(F)F)[C@@H](C)[C@@H]4CC(=O)O)cc3)CC2)c1 [Example 60, 2-((4S,5S)-1-(4-((1-(2-Chloro-5-methylphenyl)piperidin-4-yl)oxy)phenyl)-4-methyl-3-(trifluoromethyl)-4,5-dihydro-1H-pyrazol-5-yl)acetic acid]	–	364
COc1ccccc1N1CCC(Oc2ccc(N3N=C(C(F)(F)F)[C@@H](C)[C@@H]3CC(=O)O)cc2)CC1 [Example 46, 2-((4S,5S)-1-(4-((1-(2-Methoxyphenyl)piperidin-4-yl)oxy)phenyl)-4-methyl-3-(trifluoromethyl)-4,5-dihydro-1H-pyrazol-5-yl)acetic acid]	–	1700
C[C@@H]1C(C(F)(F)F)=NN(c2ccc(OC3CCN(c4cc(Cl)ccc4F)CC3)cc2)[C@H]1CC(=O)O [Example 64, 2-((4S,5S)-1-(4-((1-(5-Chloro-2-fluorophenyl)piperidin-4-yl)oxy)phenyl)-4-methyl-3-(trifluoromethyl)-4,5-dihydro-1H-pyrazol-5-yl)acetic acid]	–	512

Source: patent US9133163B2, “Dihydropyrazole GPR40 modulators” (Bristol-Myers Squibb Company, priority 2012, dated 2015)
